Molecular target: MMP-13 (Homo sapiens, UniProt P45452)
Test: EnzoLyte 520 Generic MMP Assay Kit, 5-FAM/QXL520 FRET peptide substrate
Type: biochemical
Description: The EnzoLyte™ 520 Generic MMP Assay Kit (AnaSpec Inc.) can detect the activity of several MMPs including MMP-1, 2, 3, 7, 8, 9, 13, and 14. This kit uses a 5-FAM/QXL™520 fluorescence resonance energy transfer (FRET) peptide as an MMP substrate.

Structure (SMILES)	IC50 [µM]
CC[C@H](C)[C@H](NC(=O)c1csc(-c2ccc(Cl)cc2)n1)C(=O)NC [2-(4-Chloro-phenyl)-thiazole-4-carboxylic acid ((1S,2S)-2-methyl-1-methylcarbamoyl-butyl)-amide]	0.38
CNC(=O)[C@@H](NC(=O)c1ccc(-c2ccc(OCc3ccccc3)cn2)o1)C1CCOCC1 [5-[5-(Benzyloxy)pyridin-2-yl]-N-[(1S)-2-(methylamino)-2-oxo-1-(tetrahydro-2H-pyran-4-yl)ethyl]furan-2-carboxamide]	0.003
CNC(=O)[C@@H](NC(=O)c1ccc(-c2cccc(CNC(=O)c3cccc(Br)n3)c2)o1)C1CC1 [6-Bromo-N-[3-(5-{[(1S)-1-cyclopropyl-2-(methylamino)-2-oxoethyl]carbamoyl}-2-furyl)benzyl]pyridine-2-carboxamide]	0.027
CNC(=O)[C@@H](NC(=O)c1ccc(-c2ccc(NC(=O)c3cccc(C)n3)cn2)o1)C1CCCCC1 [N-[6-(5-{[(1S)-1-cyclohexyl-2-(methylamino)-2-oxoethyl]carbamoyl}furan-2-yl)pyridin-3-yl]-6-methylpyridine-2-carboxamide]	0.007
CCc1ccnc(C(=O)NCc2cccc(-c3ccc(C(=O)N[C@H](C(=O)NC)C4CCCCC4)o3)c2)c1 [N-[3-(5-{[(1S)-1-cyclohexyl-2-(methylamino)-2-oxoethyl]carbamoyl}furan-2-yl)benzyl]-4-ethylpyridine-2-carboxamide]	0.038
CNC(=O)[C@@H](NC(=O)c1ccc(-c2ccc(OCc3cc4ccccc4o3)cn2)o1)C1CCCCC1 [5-[5-(1-Benzofuran-2-ylmethoxy)pyridin-2-yl]-N-[(1S)-1-cyclohexyl-2-(methylamino)-2-oxoethyl]furan-2-carboxamide]	0.006
CNC(=O)[C@@H](NC(=O)c1ccc(-c2cccc(CNC(=O)C3CCCNC3)c2)o1)C(C)C (stereo partly drawn) [N-[3-(5-{[(1S)-2-methyl-1-(methylcarbamoyl)propyl]carbamoyl}-2-furyl)benzyl]piperidine-3-carboxamide]	0.43
CNC(=O)[C@@H](NC(=O)c1ccc(-c2ccc(S(=O)(=O)NC)cc2)o1)C1CCCCC1 [N-[(1S)-1-cyclohexyl-2-(methylamino)-2-oxoethyl]-5-[4-(methylsulfamoyl)phenyl]furan-2-carboxamide]	0.48
CNC(=O)[C@@H](NC(=O)c1ccc(-c2cccc(CNC(=O)C3CCOCC3)c2)o1)C(C)C [N-[3-(5-{[(1S)-2-methyl-1-(methylcarbamoyl)propyl]carbamoyl}-2-furyl)benzyl]tetrahydro-2H-pyran-4-carboxamide]	0.337
CNC(=O)[C@@H](NC(=O)c1ccc(-c2cccc(CNC(=O)C3CCCCN3C)c2)o1)C(C)C (stereo partly drawn) [1-Methyl-N-[3-(5-{[(1S)-2-methyl-1-(methylcarbamoyl)propyl]carbamoyl}-2-furyl)benzyl]piperidine-2-carboxamide]	0.3
CNC(=O)[C@@H](NC(=O)c1ccc(-c2ccc(NC(=O)c3ccnn3C)cc2)o1)C1CCCCC1 [N-[4-(5-{[(1S)-1-cyclohexyl-2-(methylamino)-2-oxoethyl]carbamoyl}furan-2-yl)phenyl]-1-methyl-1H-pyrazole-5-carboxamide]	0.099
CNC(=O)[C@@H](NC(=O)c1ccc(-c2cccc(CNC(=O)c3ccn(C)n3)c2)o1)C1CCCCC1 [N-[3-(5-{[(1S)-1-cyclohexyl-2-(methylamino)-2-oxoethyl]carbamoyl}furan-2-yl)benzyl]-1-methyl-1H-pyrazole-3-carboxamide]	0.024
CC[C@H](C)[C@H](NC(=O)c1ccc(-c2ccc(Cl)cc2)o1)C(=O)NC [5-(4-Chloro-phenyl)-furan-2-carboxylic acid ((1S,2S)-2-methyl-1-methylcarbamoyl-butyl)-amide]	0.3
CNC(=O)[C@@H](NC(=O)c1ccc(-c2ccc(OCc3cc(C)nn3C)cc2)o1)C1CCCCC1 [5-[4-(2,5-Dimethyl-2H-pyrazol-3-ylmethoxy)-phenyl]-furan-2-carboxylic acid ((S)-cyclohexyl-methylcarbamoyl-methyl)-amide]	0.006
CNC(=O)[C@@H](NC(=O)c1ccc(-c2ccc(Cl)cc2)o1)C1CCCCC1 [5-(4-chlorophenyl)-N-[(1S)-1-cyclohexyl-2-(methylamino)-2-oxoethyl]furan-2-carboxamide]	0.475
CNC(=O)[C@@H](NC(=O)c1ccc(-c2ccc(NC(=O)c3cn(C)cn3)cc2)o1)C1CCCCC1 [N-[4-(5-{[(1S)-1-cyclohexyl-2-(methylamino)-2-oxoethyl]carbamoyl}furan-2-yl)phenyl]-1-methyl-1H-imidazole-4-carboxamide]	0.14
CNC(=O)[C@@H](NC(=O)c1ccc(-c2ccc(NC(=O)c3cc(C)[nH]n3)cc2)o1)C1CCCCC1 [N-[4-(5-{[(1S)-1-cyclohexyl-2-(methylamino)-2-oxoethyl]carbamoyl}furan-2-yl)phenyl]-5-methyl-1H-pyrazole-3-carboxamide]	0.087
CNC(=O)[C@@H](NC(=O)c1ccc(-c2ccc(-c3ccncc3)cn2)o1)C1CCCCC1 [5-[3,4′]Bipyridinyl-6-yl-furan-2-carboxylic acid ((S)-cyclohexyl-methylcarbamoyl-methyl)-amide]	0.023
CNC(=O)[C@@H](NC(=O)c1ccc(-c2ccc(OCc3cc(C)ccn3)cn2)o1)C1CCCCC1 [N-[(1S)-1-cyclohexyl-2-(methylamino)-2-oxoethyl]-5-{5-[(4-methylpyridin-2-yl)methoxy]pyridin-2-yl}furan-2-carboxamide]	0.008
CNC(=O)[C@@H](NC(=O)c1ccc(-c2ccc(Br)cc2)o1)C1CCCCC1 [5-(4-Bromophenyl)-N-[(1S)-1-cyclohexyl-2-(methylamino)-2-oxoethyl]furan-2-carboxamide]	0.395
CNC(=O)[C@@H](NC(=O)c1ccc(-c2ccc(-c3cnc(N)nc3)cn2)o1)C(C)C [5-[5-(2-Amino-pyrimidin-5-yl)-pyridin-2-yl]-furan-2-carboxylic acid ((S)-2-methyl-1-methylcarbamoyl-propyl)-amide]	0.38
CNC(=O)[C@@H](NC(=O)c1ccc(-c2ccc(OCc3ccnn3C)cn2)o1)C1CCCCC1 [N-[(1S)-1-cyclohexyl-2-(methylamino)-2-oxoethyl]-5-{5-[(1-methyl-1H-pyrazol-5-yl)methoxy]pyridin-2-yl}furan-2-carboxamide]	0.006
CNC(=O)[C@@H](NC(=O)c1ccc(-c2ccc(OCc3ccncc3C)cn2)o1)C1CCCCC1 [N-[(1S)-1-cyclohexyl-2-(methylamino)-2-oxoethyl]-5-{5-[(3-methylpyridin-4-yl)methoxy]pyridin-2-yl}furan-2-carboxamide]	0.003
COCC(C)NC(=O)[C@@H](NC(=O)c1ccc(-c2ccc(NC(=O)c3cc4ccccc4o3)cc2)o1)C1CCCCC1 (stereo partly drawn) [N-{4-[5-({(1S)-1-cyclohexyl-2-[(1-methoxypropan-2-yl)amino]-2-oxoethyl}carbamoyl)furan-2-yl]phenyl}-1-benzofuran-2-carboxamide]	0.355
CNC(=O)[C@@H](NC(=O)c1ccc(-c2ccc(O[C@H](C)c3ccncc3)cn2)o1)C1CCCCC1 [N-[(1S)-1-cyclohexyl-2-(methylamino)-2-oxoethyl]-5-{5-[(1R)-1-(pyridin-4-yl)ethoxy]pyridin-2-yl}furan-2-carboxamide]	0.003
